This passage reports IC50 results from publication PMC11867108, “Design and application of a fluorescent probe for imaging of endogenous Bruton's tyrosine kinase with preserved enzymatic activity” (RSC Chemical Biology, 2025).

pIC50: −log10 of the molar value. Bounds are passed on as bounds.

Experiment [1] has as its target T1, Bruton's tyrosine kinase (BTK) (Homo sapiens, UniProt Q06187).
T1 construct: full-length recombinant BTK
The experiment in a line: in-gel fluorescence under denaturing conditions (covalent labelling); ADP-Glo IC50. It counts as biochemical.

For experiment [2], the target named is T1, Bruton's tyrosine kinase (BTK). The experiment in a line: LC-MS/MS of tryptic peptide […]-487 and in-gel fluorescence; ADP-Glo IC50; immunoprecipitation from Ramos cells. In kind it is biochemical. (In general: In ADP-Glo the light output rises with the ADP produced.)

T1 sequence (Q06187 2-659): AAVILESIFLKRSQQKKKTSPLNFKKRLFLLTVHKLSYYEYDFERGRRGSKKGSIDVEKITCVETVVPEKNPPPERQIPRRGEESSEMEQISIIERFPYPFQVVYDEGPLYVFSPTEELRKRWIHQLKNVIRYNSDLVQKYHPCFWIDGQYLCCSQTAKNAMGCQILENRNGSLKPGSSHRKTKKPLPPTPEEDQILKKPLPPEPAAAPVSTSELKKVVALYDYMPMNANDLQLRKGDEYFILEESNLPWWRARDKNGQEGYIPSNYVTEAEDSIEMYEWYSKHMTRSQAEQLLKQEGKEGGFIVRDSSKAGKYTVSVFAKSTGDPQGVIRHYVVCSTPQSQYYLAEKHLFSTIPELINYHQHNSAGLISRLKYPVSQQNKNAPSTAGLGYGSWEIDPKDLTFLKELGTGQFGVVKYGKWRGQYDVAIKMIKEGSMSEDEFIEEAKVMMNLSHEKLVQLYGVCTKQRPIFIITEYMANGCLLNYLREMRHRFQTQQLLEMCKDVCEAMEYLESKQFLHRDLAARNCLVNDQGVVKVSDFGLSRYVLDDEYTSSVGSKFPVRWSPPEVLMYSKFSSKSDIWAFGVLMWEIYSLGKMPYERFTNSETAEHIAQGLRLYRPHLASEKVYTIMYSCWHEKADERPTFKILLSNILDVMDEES

Regarding `C=C(CN1CCC(CNc2ncnc(N)c2-c2ccc(Oc3ccccc3)cc2)CC1)C(=O)NCCNC(=O)CCC1=[N+]2C(=Cc3c(C)cc(C)n3[B-]2(F)F)C=C1` [Evo-1], in experiment [1], the pIC50 was 5.12.
`C=C(CN1CCC(CNc2ncnc(N)c2-c2ccc(Oc3ccccc3)cc2)CC1)C(=O)N1CCC(NC(=O)CCC2=[N+]3C(=Cc4c(C)cc(C)n4[B-]3(F)F)C=C2)CC1` [Evo-2] showed a pIC50 in experiment [2] of less than 5.00.

For orientation: pIC50 means the IC50 on a negative log10 scale, so that one unit is a factor of ten. Lower therefore signals a large IC50.
